Where two headings read alike, the source gives them in different places.
Columns and labels:
Format in all cases: cell-based
[1] = tested on: SARS-CoV-2 virus (hCoV-19/Egypt/NRC-03/2020); assay: microbe, parasite or virus in culture
[2] = MTT cytotoxicity assay; conditions: African green monkey
Experimental: (§1) To assess the half maximal cytotoxic concentration (CC50), stock solutions of the test compounds were prepared in 10% DMSO in ddH2O and diluted further to the working solutions with DMEM. The cytotoxic activity of the extracts was tested in Vero E6 cells by using the 3-(4,5-dimethylthiazol-2-yl)-2,5-diphenyltetrazolium bromide (MTT) method with minor modifications. Briefly, the cells were seeded in 96-well plates (100 µL/well at a density of 3 × 10^5 cells/mL) and incubated for 24 h at 37 °C in 5%CO2. After 24 h, cells were treated with various concentrations of the tested compounds in triplicates. 24 h later, the supernatant was discarded, and cell monolayers were washed with sterile 1x phosphate buffer saline (PBS) 3 times and MTT solution (20 µL of 5 mg/mL stock solution) was add to each well and incubated at 37 °C for 4 h followed by medium aspiration. In each well, the formed formazan crystals were dissolved with 200 µL of acidified isopropanol (0.04 M HCl in absolute isopropanol = 0.073 mL HCL in 50 mL isopropanol). Absorbance of formazan solutions was measured at λ max 540 nm with 620 nm as a reference wavelength using a multi-well plate reader. The percentage of cytotoxicity compared to the untreated cells was determined with the following equation.

[3] = tested on: Vero E6 cells; assay: MTT cytotoxicity assay; conditions: Vero E6 cells, MTT, 24 h treatment
Experimental: as §1

[4] = Severe acute respiratory syndrome coronavirus 2, Vero C1008, 72 h, read-out: IC50 against SARS-CoV-2
[5] = Vero E6 cells, MTT, 24 h treatment, read-out: CC50
[6] = Vero E6 cells, MTT, 24 h treatment, read-out: CC50 (Figure 2)
[7] = Severe acute respiratory syndrome coronavirus 2, Vero C1008, 72 h, read-out: IC50 against SARS-CoV-2 (Figure 2)

SMILES | selectivity index (SI = CC50/IC50) [1] | IC50 [1, 4] | CC50 at 24 h [2, 5] | CC50 at 24 h [2, 6] | IC50 [1, 7] | also measured
COc1cc(OC)c2c(O)c3c(=O)cc(C)oc3c(-c3c(OC)cc4cc5oc(C)cc(=O)c5c(O)c4c3OC)c2c1 [Aurasperone A (3), aurasperone A] | 2641.5 | 12.2 µM | 32400 µM | 32400 µM | – | –
COc1cc(OC)c2c(c1)cc(O)c1c(=O)cc(C)oc12 [Flavasperone (1), flavasperone] | – | – | – | 189 µM | 204 µM | –
COc1cc(OC)c2c(O)c3c(=O)cc(C)oc3c(-c3c(OC)cc4cc(O)c5c(=O)cc(C)oc5c4c3OC)c2c1 [Fonsecinone A (4), fonsecinone A] | 4.7 | 61.1 µM | – | 288 µM | 61.6 µM | –
COc1cc(OC)c2c(O)c3c(=O)cc(C)oc3c(-c3c(OC)cc(OC)c4c(O)c5c(=O)cc(C)oc5cc34)c2c1 [Rubasperone B (6), rubasperone B] | – | – | – | – | – | IC50 ([1]; Severe acute respiratory syndrome coronavirus 2, Vero C1008, Vero E6 cells infected with hCoV-19/Egypt/NRC-03/2020, 72 h, read-out: IC50 against SARS-CoV-2 (Figure 2)): 105 µM; CC50 at 24 h [2]: 181 µM
CCC(CC)COC(=O)[C@H](C)N[P@](=O)(OC[C@H]1O[C@@](C#N)(c2ccc3c(N)ncnn23)[C@H](O)[C@@H]1O)Oc1ccccc1 [remdesivir, reference compound] | – | – | 415 µM | – | – | selectivity index (SI = CC50/IC50) ([1]; CC50 in Vero E6 cells / IC50 against SARS-CoV-2): 41.07; IC50 ([1]; Severe acute respiratory syndrome coronavirus 2, Vero C1008, Vero E6 cells infected with hCoV-19/Egypt/NRC-03/2020, 72 h, CPE reduction by 50%, read-out: IC50 against SARS-CoV-2): 10.1 µM; CC50 [3]: 415 µM
